Like-named read-outs stand apart in the source and are kept apart here.
Columns and labels:
human OCT1 (hOCT1) [1] = molecular target: T1, human OCT1 (hOCT1) (Homo sapiens, UniProt O15245); assay: cell-based; set-up: gene SLC22A1; conditions: HEK293, read-out: Inhibitory Effects (%) / hOCT1 / 10 μM
T1 sequence (O15245 1-554): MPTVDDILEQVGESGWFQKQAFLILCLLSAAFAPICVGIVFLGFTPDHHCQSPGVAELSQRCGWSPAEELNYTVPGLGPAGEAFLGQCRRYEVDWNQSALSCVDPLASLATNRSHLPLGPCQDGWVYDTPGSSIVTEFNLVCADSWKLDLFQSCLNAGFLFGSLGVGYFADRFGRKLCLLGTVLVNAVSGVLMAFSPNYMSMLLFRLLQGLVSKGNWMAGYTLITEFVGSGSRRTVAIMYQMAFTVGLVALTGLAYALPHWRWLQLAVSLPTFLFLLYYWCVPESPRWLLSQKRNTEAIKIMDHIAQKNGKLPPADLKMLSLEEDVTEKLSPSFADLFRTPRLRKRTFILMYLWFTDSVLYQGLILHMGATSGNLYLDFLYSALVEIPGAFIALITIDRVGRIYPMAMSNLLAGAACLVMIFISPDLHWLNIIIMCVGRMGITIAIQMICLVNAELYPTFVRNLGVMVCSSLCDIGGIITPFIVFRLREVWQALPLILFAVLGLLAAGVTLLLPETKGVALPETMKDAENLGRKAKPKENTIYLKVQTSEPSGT

[2] = inhibition of 3H-MPP uptake in transfected HEK293 cells, % at […]; format: cell-based, Mus musculus; conditions: read-out: Inhibitory Effects (%) / hOCT1 / 100 μM
hMATE1 = molecular target: T2, hMATE1 (Homo sapiens, UniProt Q96FL8); assay: inhibition of […]-metformin uptake in transfected HEK293 cells, % at […]; format: cell-based; conditions: read-out: Inhibitory Effects (%) / hMATE1 / 10 μM
T2 construct: gene SLC47A1; NM_018242.2, stably transfected HEK293 cells
T2 sequence (Q96FL8 1-570): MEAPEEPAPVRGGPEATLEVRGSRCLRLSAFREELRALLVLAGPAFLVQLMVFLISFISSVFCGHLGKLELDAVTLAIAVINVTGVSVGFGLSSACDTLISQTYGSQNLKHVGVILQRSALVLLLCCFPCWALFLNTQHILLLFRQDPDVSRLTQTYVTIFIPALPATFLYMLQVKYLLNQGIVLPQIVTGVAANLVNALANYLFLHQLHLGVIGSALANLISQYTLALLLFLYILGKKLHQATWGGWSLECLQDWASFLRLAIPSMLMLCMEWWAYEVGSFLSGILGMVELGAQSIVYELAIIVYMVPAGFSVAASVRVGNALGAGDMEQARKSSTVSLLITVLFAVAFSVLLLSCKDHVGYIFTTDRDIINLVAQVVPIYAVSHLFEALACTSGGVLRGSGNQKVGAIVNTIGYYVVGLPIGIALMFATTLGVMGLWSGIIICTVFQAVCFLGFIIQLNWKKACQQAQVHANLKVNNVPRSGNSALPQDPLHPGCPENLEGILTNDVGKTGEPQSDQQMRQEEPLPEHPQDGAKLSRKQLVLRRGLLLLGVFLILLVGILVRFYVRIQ

mouse Oct1 (mOct1) = molecular target: T3, mouse Oct1 (mOct1) (Mus musculus, UniProt O08966); assay: inhibition of 3H-MPP uptake in transfected HEK293 cells; format: cell-based
T3 construct: gene Slc22a1; NM_009202.5, stably transfected HEK293 cells
T3 sequence (O08966 1-556): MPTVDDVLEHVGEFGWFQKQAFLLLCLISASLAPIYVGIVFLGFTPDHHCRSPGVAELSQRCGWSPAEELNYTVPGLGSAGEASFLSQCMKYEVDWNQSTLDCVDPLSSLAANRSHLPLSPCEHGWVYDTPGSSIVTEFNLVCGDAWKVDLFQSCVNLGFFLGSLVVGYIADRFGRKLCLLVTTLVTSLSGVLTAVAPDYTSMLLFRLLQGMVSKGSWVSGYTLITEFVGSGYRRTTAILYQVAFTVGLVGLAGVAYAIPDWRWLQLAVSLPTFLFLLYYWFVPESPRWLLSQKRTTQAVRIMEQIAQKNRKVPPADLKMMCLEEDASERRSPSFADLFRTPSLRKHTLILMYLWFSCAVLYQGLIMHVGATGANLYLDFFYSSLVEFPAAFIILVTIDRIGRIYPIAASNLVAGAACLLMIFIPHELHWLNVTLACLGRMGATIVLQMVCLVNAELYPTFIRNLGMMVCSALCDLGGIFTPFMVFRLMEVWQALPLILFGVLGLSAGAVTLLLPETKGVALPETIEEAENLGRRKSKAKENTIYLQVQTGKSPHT

rat Oct1 (rOct1) = molecular target: T4, rat Oct1 (rOct1) (Rattus norvegicus, UniProt Q63089); assay: as above; format: cell-based
T4 construct: gene Slc22a1; NM_012697.1, stably transfected HEK293 cells
T4 sequence (Q63089 1-556): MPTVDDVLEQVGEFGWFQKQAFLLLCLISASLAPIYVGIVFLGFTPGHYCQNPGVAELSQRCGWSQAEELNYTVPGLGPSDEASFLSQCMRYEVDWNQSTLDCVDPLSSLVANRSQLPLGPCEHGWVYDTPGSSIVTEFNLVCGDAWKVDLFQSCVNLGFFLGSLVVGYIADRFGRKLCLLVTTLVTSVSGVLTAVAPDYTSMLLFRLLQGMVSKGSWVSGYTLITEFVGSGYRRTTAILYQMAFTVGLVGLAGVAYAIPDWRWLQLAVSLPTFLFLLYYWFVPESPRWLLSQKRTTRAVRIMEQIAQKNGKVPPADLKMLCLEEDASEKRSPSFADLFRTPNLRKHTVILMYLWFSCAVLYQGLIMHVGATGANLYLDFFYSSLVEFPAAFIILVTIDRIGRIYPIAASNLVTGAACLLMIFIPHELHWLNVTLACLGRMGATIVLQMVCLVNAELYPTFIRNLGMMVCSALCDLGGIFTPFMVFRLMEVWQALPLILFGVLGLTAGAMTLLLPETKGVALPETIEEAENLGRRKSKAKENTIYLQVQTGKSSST

human OCT1 (hOCT1) [3] = molecular target: T1, human OCT1 (hOCT1); assay: as above; format: cell-based; set-up: gene SLC22A1; NM_003057.2, OCT1*1B allele, stably transfected HEK293 cells
[4] = substrate: C[n+]1ccc(-c2ccccc2)cc1; assay: concentration-dependent 3H-MPP uptake, Km; format: cell-based, Mus musculus
[5] = substrate: C[n+]1ccc(-c2ccccc2)cc1; assay: concentration-dependent 3H-MPP uptake, Km; format: cell-based, Rattus norvegicus
[6] = substrate: C[n+]1ccc(-c2ccccc2)cc1; assay: concentration-dependent 3H-MPP uptake, Km; format: cell-based, Homo sapiens

Clc1cccc(Cl)c1N=C1NCCN1 [Clonidine]
inhibition at 10 µM (human OCT1 (hOCT1) [1]): 73%

C=CCOC(Cn1ccnc1)c1ccc(Cl)cc1Cl (stereo not shown) [Imazalil]
inhibition at 10 µM [2]: 84%

CC(=O)N1CCN(c2ccc(OCC3COC(Cn4ccnc4)(c4ccc(Cl)cc4Cl)O3)cc2)CC1 (stereo not shown) [Ketoconazol]
inhibition at 10 µM (hMATE1): 87%

CCN1/C(=C/c2ccc3ccccc3[n+]2CC)C=Cc2ccccc21 [decynium22]
IC50 (mouse Oct1 (mOct1)): 5.3 ± 0.4 µM
inhibition at 10 µM (hMATE1): 76%
IC50 (rat Oct1 (rOct1)): 10.5 ± 0.4 µM
IC50 (human OCT1 (hOCT1) [3]): 12.1 ± 0.8 µM

B1: mouse Oct1 (mOct1) (Mus musculus) (protein)
chain: MPTVDDVLEHVGEFGWFQKQAFLLLCLISASLAPIYVGIVFLGFTPDHHCRSPGVAELSQRCGWSPAEELNYTVPGLGSAGEASFLSQCMKYEVDWNQSTLDCVDPLSSLAANRSHLPLSPCEHGWVYDTPGSSIVTEFNLVCGDAWKVDLFQSCVNLGFFLGSLVVGYIADRFGRKLCLLVTTLVTSLSGVLTAVAPDYTSMLLFRLLQGMVSKGSWVSGYTLITEFVGSGYRRTTAILYQVAFTVGLVGLAGVAYAIPDWRWLQLAVSLPTFLFLLYYWFVPESPRWLLSQKRTTQAVRIMEQIAQKNRKVPPADLKMMCLEEDASERRSPSFADLFRTPSLRKHTLILMYLWFSCAVLYQGLIMHVGATGANLYLDFFYSSLVEFPAAFIILVTIDRIGRIYPIAASNLVAGAACLLMIFIPHELHWLNVTLACLGRMGATIVLQMVCLVNAELYPTFIRNLGMMVCSALCDLGGIFTPFMVFRLMEVWQALPLILFGVLGLSAGAVTLLLPETKGVALPETIEEAENLGRRKSKAKENTIYLQVQTGKSPHT
notes: NM_009202.5, stably transfected HEK293 cells
Km [4]: 36 ± 13 µM

B2: rat Oct1 (rOct1) (Rattus norvegicus) (protein)
chain: MPTVDDVLEQVGEFGWFQKQAFLLLCLISASLAPIYVGIVFLGFTPGHYCQNPGVAELSQRCGWSQAEELNYTVPGLGPSDEASFLSQCMRYEVDWNQSTLDCVDPLSSLVANRSQLPLGPCEHGWVYDTPGSSIVTEFNLVCGDAWKVDLFQSCVNLGFFLGSLVVGYIADRFGRKLCLLVTTLVTSVSGVLTAVAPDYTSMLLFRLLQGMVSKGSWVSGYTLITEFVGSGYRRTTAILYQMAFTVGLVGLAGVAYAIPDWRWLQLAVSLPTFLFLLYYWFVPESPRWLLSQKRTTRAVRIMEQIAQKNGKVPPADLKMLCLEEDASEKRSPSFADLFRTPNLRKHTVILMYLWFSCAVLYQGLIMHVGATGANLYLDFFYSSLVEFPAAFIILVTIDRIGRIYPIAASNLVTGAACLLMIFIPHELHWLNVTLACLGRMGATIVLQMVCLVNAELYPTFIRNLGMMVCSALCDLGGIFTPFMVFRLMEVWQALPLILFGVLGLTAGAMTLLLPETKGVALPETIEEAENLGRRKSKAKENTIYLQVQTGKSSST
notes: NM_012697.1, stably transfected HEK293 cells
Km [5]: 57 ± 5 µM

B3: human OCT1 (hOCT1) (Homo sapiens) (protein)
chain: MPTVDDILEQVGESGWFQKQAFLILCLLSAAFAPICVGIVFLGFTPDHHCQSPGVAELSQRCGWSPAEELNYTVPGLGPAGEAFLGQCRRYEVDWNQSALSCVDPLASLATNRSHLPLGPCQDGWVYDTPGSSIVTEFNLVCADSWKLDLFQSCLNAGFLFGSLGVGYFADRFGRKLCLLGTVLVNAVSGVLMAFSPNYMSMLLFRLLQGLVSKGNWMAGYTLITEFVGSGSRRTVAIMYQMAFTVGLVALTGLAYALPHWRWLQLAVSLPTFLFLLYYWCVPESPRWLLSQKRNTEAIKIMDHIAQKNGKLPPADLKMLSLEEDVTEKLSPSFADLFRTPRLRKRTFILMYLWFTDSVLYQGLILHMGATSGNLYLDFLYSALVEIPGAFIALITIDRVGRIYPMAMSNLLAGAACLVMIFISPDLHWLNIIIMCVGRMGITIAIQMICLVNAELYPTFVRNLGVMVCSSLCDIGGIITPFIVFRLREVWQALPLILFAVLGLLAAGVTLLLPETKGVALPETMKDAENLGRKAKPKENTIYLKVQTSEPSGT
notes: NM_003057.2, OCT1*1B allele, stably transfected HEK293 cells
Km [6]: 73 ± 7 µM
